Publication PMC8113468, “Sugar transporters enable a leaf beetle to accumulate plant defense compounds” (Nature Communications, 2021)

Legend:
Format in all cases: cell-based
PaGTR1 = target: T1, PaGTR1 (Phyllotreta armoraciae, UniProt A0A858Z6R5); experiment: uptake into PaGTR1-expressing Xenopus oocytes, LC-MS/MS; conditions: Kulori buffer with MES pH 6.0, 10 min, room temperature; proton-dependent import; read-out: apparent Km
T1 construct: gene GTR1; full-length ORF without stop codon in pNB1u, C-terminal HA tag, cRNA expressed in Xenopus laevis oocytes
T1 sequence (A0A858Z6R5 entry or part of it): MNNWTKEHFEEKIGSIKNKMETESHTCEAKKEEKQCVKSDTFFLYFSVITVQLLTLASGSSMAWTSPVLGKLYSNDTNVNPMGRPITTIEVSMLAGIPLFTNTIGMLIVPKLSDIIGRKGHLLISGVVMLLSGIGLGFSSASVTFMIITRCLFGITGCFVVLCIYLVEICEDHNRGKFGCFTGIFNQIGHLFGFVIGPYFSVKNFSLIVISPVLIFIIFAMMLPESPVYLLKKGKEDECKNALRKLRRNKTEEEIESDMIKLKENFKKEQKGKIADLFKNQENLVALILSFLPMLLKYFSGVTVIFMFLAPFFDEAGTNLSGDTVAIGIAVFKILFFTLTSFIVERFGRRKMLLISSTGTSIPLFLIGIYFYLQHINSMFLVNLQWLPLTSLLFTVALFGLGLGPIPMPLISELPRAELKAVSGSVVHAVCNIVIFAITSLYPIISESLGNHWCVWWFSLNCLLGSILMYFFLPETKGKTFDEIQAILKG

PaGTR3 = target: T2, PaGTR3 (Phyllotreta armoraciae, UniProt A0A858Z6Y2); experiment: uptake into transfected High Five insect cells, LC-MS/MS; conditions: equimolar mixture of seven glucosinolates, 200 µM, PBS pH 5.5, 1 h, 27 °C
T2 construct: gene GTR3; full-length ORF in pIEx-4, C-terminal 6xHis tag, expressed in High Five insect cells
T2 sequence (A0A858Z6Y2 1-478): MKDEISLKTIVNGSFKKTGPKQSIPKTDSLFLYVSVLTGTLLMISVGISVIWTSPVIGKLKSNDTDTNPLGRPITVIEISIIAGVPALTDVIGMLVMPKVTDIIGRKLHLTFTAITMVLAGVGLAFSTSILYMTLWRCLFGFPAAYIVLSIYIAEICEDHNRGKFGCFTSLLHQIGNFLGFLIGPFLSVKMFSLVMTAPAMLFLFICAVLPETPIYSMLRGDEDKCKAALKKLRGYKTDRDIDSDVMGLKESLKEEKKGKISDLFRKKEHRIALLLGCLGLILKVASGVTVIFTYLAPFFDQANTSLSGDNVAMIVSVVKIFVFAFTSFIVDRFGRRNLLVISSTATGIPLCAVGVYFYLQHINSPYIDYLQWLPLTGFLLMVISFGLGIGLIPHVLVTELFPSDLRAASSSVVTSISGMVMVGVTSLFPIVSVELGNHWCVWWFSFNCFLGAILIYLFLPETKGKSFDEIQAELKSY

PaGTR2 = target: T3, PaGTR2 (Phyllotreta armoraciae, UniProt A0A858Z6M7); experiment: as above; conditions: equimolar mixture of seven glucosinolates, 200 µM, PBS pH 5.5, 1 h, 27 °C
T3 construct: gene GTR2; full-length ORF in pIEx-4, C-terminal 6xHis tag, expressed in High Five insect cells
T3 sequence (A0A858Z6M7 1-504): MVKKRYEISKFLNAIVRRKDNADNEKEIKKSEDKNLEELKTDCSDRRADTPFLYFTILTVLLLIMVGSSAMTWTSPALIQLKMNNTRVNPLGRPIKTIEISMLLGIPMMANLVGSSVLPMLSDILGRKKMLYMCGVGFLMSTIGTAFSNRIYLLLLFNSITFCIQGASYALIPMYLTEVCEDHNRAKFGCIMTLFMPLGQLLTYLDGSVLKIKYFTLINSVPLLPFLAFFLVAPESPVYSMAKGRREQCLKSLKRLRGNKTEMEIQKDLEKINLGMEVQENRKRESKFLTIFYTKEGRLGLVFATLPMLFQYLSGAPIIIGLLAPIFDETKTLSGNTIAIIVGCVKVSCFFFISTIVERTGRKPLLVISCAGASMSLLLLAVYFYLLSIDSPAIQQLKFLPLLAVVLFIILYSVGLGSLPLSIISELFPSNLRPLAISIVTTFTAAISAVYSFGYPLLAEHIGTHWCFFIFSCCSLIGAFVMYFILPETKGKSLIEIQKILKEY

O=S(=O)(O)O/N=C(/Cc1c[nH]c2ccccc12)S[C@@H]1O[C@H](CO)[C@@H](O)[C@H](O)[C@H]1O [I3M glucosinolate]
Km (PaGTR1): 50.6 ± 4.1 µM
uptake into transfected High Five insect cells, LC-MS/MS (PaGTR3): PaGTR2 and PaGTR3 expression was analyzed because the recombinant transporters also used I3M glucosinolate
uptake into transfected High Five insect cells, LC-MS/MS (PaGTR2): PaGTR2 and PaGTR3 expression was analyzed because the recombinant transporters also used I3M glucosinolate
